Results from patent publication US20230102554A1 (GB002, INC., priority 2019, published 2023).

What was measured:
[1] = molecular target: T1, Human PDGFRα, cytoplasmic domain (GST-PDGFRα) (Homo sapiens, UniProt P16234); assay: Human PDGFRα biochemical inhibition assay (off-chip Mobility Shift Assay)
T1 construct: made in house

[2] = molecular target: T2, Human PDGFRβ, cytoplasmic domain (GST-PDGFRβ) (Homo sapiens, UniProt P09619); assay: Human PDGFRβ biochemical inhibition assay (off-chip Mobility Shift Assay)
T2 construct: made in house
T2 sequence (P09619 with tags, fused parts or gaps): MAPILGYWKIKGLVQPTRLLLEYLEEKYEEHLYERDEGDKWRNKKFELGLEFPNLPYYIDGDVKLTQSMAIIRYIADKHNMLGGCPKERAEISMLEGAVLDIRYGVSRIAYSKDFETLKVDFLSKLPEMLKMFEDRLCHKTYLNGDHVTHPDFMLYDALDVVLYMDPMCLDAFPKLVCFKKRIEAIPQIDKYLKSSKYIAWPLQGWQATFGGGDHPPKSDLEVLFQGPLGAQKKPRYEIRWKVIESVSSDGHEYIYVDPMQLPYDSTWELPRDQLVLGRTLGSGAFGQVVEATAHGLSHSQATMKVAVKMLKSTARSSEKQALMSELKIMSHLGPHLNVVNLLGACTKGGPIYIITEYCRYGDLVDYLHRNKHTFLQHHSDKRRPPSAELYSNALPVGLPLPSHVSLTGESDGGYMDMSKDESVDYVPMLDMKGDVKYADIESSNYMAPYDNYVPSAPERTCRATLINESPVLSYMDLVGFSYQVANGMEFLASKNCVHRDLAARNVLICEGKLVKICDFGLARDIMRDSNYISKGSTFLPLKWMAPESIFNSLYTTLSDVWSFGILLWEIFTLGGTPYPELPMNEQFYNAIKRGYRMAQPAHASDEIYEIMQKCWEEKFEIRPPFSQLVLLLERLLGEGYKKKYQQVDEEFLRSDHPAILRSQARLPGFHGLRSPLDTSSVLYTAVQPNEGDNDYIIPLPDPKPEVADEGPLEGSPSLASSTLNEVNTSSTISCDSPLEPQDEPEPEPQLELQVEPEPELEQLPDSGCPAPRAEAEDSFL
Experimental: Human PDGFRβ Biochemical Inhibition Assay
The compounds described herein were tested for the ability to inhibit activity of PDGFRβ which was achieved via use of an off-chip Mobility Shift Assay (MSA). Human PDGFRβ, cytoplasmic domain [557-1106 (end) amino acids of accession number NP_002600.1 (SEQ ID NO: 3)] was expressed as N-terminal GST-fusion protein (88 kDa) using baculovirus expression system (SEQ ID NO: 4). GST-PDGFRβ was purified by using glutathione sepharose chromatography. Test compounds were dissolved in and diluted with dimethylsulfoxide (DMSO) to achieve 1 mM concentration. Then the solution was further diluted 25-fold with assay buffer to make the final test compound solution. The reference compound, Staurosporine, used as the assay positive control was prepared similarly. The 4× compound solution/substrate (CSKtide, 1000 nM)/ATP (Km ATP)/Mg Metal (5 mM) was prepared with kit buffer (20 mM HEPES, 0.01% Triton X-100, 5 mM DTT, pH 7.5), and 2× kinase solution was prepared with assay buffer (20 mM HEPES, 0.01% Triton X-100, 1 mM DTT, pH 7.5). The 5 μL of 4× compound solution, […] of 4× Substrate/ATP/Metal solution, and […] of 2× kinase solution were mixed and incubated in a well of polypropylene 384 well microplate for 1 hour at room temperature. […] of Termination Buffer (QuickScout Screening Assist MSA; Carna Biosciences) was added to the well. The reaction mixture was applied to LabChip™ system (Perkin Elmer), and the product and substrate peptide peaks were separated and quantitated. The kinase reaction was evaluated by the product ratio calculated from peak heights of product(P) and substrate(S) peptides (P/(P+S)). The readout value of reaction control (complete reaction mixture) was set as a 0% inhibition, and the readout value of background (Enzyme(−)) was set as a 100% inhibition, then the percent inhibition of each test solution was calculated.
With respect to PDGFRβ activity: “+++” denotes an IC50 of less than 300 nM; “++” denotes an IC50 of from 300 nM to less than 1000 nM; and “+” denotes an IC50 of 1000 nM or more.

T1 sequence (P16234 550-1089 T674I): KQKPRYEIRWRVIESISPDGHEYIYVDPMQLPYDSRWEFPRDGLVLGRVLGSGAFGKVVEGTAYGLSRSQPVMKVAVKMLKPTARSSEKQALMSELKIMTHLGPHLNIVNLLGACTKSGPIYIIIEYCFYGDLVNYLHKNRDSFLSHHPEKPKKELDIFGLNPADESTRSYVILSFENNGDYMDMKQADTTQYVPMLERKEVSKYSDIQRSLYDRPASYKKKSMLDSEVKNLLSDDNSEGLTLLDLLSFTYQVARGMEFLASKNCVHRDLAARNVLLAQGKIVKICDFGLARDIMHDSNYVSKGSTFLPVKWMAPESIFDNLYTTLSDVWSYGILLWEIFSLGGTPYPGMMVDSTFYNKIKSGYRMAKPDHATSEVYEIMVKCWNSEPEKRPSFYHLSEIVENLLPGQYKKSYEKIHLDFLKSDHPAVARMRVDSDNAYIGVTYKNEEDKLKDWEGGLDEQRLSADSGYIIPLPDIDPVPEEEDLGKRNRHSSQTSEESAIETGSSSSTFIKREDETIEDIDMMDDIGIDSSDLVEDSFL

| SMILES | IC50 [1] [nM] | IC50 [2] [nM] |
| --- | --- | --- |
| Cc1c[nH]c2ncc(N[C@@H](C)c3cccc(NC(=O)c4cnn(C5CC5)c4)c3)nc12 [Compound 573, (s)-1-cyclopropyl-N-(3-(1-((7-methyl-5H-pyrrolo[2,3-b]pyrazin-2-yl)amino)ethyl)phenyl)-1H-pyrazole-4-carboxamide] | < 300 | < 300 |
| COc1ccc(NC(=O)c2cncc(C)c2)cc1CNc1cnc2ccccc2n1 [Compound 43, N-(4-methoxy-3-((quinoxalin-2-ylamino)methyl)phenyl)-5-methylnicotinamide] | 300 to 1000 | ≥ 1000 |
| CCn1cc2ncc(N[C@@H](C)c3cccc(NC(=O)c4ccc(OC(F)(F)F)c(Cl)c4)c3)nc2n1 [Compound 437, (S)-3-chloro-N-(3-(1-((2-ethyl-2H-pyrazolo[3,4-b]pyrazin-6-yl)amino)ethyl)phenyl)-4-(trifluoromethoxy)benzamide] | < 300 | < 300 |
| CC(C)c1cc(C(=O)Nc2cccc([C@H](C)Nc3cnc4cnn(C)c4n3)c2)nn1C [Compound 162, (S)-5-isopropyl-1-methyl-N-(3-(1-((1-methyl-1H-pyrazolo[3,4-b]pyrazin-6-yl)amino)ethyl)phenyl)-1H-pyrazole-3-carboxamide] | < 300 | < 300 |
| C[C@H](Nc1cnc2[nH]cc(-c3cnn(C)c3)c2n1)c1cccc(NC(=O)c2cnc(C3CC3)s2)c1 [Compound 578, (S)-2-cyclopropyl-N-(3-(1-((7-(1-methyl-1H-pyrazol-4-yl)-5H-pyrrolo[2,3-b]pyrazin-2-yl)amino)ethyl)phenyl)thiazole-5-carboxamide] | < 300 | < 300 |
| CCn1cc2ncc(N[C@@H](C)c3cccc(NC(=O)c4ccc(CN5CCN(C)CC5)c(C5CC5)c4)c3)nc2n1 [Compound 502, (S)-3-cyclopropyl-N-(3-(1-((2-ethyl-2H-pyrazolo[3,4-b]pyrazin-6-yl)amino)ethyl)phenyl)-4-((4-methylpiperazin-1-yl)methyl)benzamide] | < 300 | < 300 |
| CSc1cccc(C(=O)Nc2cccc([C@H](C)Nc3cnc4cnn(C)c4n3)c2)c1 [Compound 224, (S)-N-(3-(1-((1-methyl-1H-pyrazolo[3,4-b]pyrazin-6-yl)amino)ethyl)phenyl)-3-(methylthio)benzamide] | < 300 | < 300 |
| Cc1c[nH]c2ncc(N[C@@H](C)c3cccc(NC(=O)c4cnn(C(F)F)c4)c3)nc12 [Compound 561, (S)-1-(difluoromethyl)-N-(3-(1-((7-methyl-5H-pyrrolo[2,3-b]pyrazin-2-yl)amino)ethyl)phenyl)-1H-pyrazole-4-carboxamide] | < 300 | < 300 |

More lines, now with the values ahead:

| IC50 [1] [nM] | IC50 [2] [nM] | SMILES |
| --- | --- | --- |
| < 300 | < 300 | Cc1cc(C(=O)Nc2cccc([C@H](C)Nc3cnc4[nH]cc(-c5cnn(C)c5)c4n3)c2)cnc1N1CCCC1 [Compound 577, (S)-5-methyl-N-(3-(1-((7-(1-methyl-1H-pyrazol-4-yl)-5H-pyrrolo[2,3-b]pyrazin-2-yl)amino)ethyl)phenyl)-6-(pyrrolidin-1-yl)nicotinamide] |
| < 300 | < 300 | Cc1cc(C(=O)Nc2cccc([C@H](C)Nc3cnc4cnn(C)c4n3)c2)ccc1C(=O)OCc1oc(=O)oc1C [Compound 267, (5-methyl-2-oxo-1,3-dioxol-4-yl)methyl (S)-2-methyl-4-((3-(1-((1-methyl-1H-pyrazolo[3,4-b]pyrazin-6-yl)amino)ethyl)phenyl)carbamoyl)benzoate] |
| < 300 | 300 to 1000 | C[C@H](Nc1cnc2cnn(C)c2n1)c1cccc(NC(=O)c2cnc3ncn(C)c3c2)c1 [Compound 77, (S)-1-methyl-N-(3-(1-((1-methyl-1H-pyrazolo[3,4-b]pyrazin-6-yl)amino)ethyl)phenyl)-1H-imidazo[4,5-b] pyridine-6-carboxamide] |
| < 300 | ≥ 1000 | CCn1cc2ncc(N[C@@H](C)c3cc(NC(=O)Cc4ccc(C)cn4)ccc3F)nc2n1 [Compound 689, (S)-N-(3-(1-((2-ethyl-2H-pyrazolo[3,4-b]pyrazin-6-yl)amino)ethyl)-4-fluorophenyl)-2-(5-methylpyridin-2-yl) acetamide] |
